In PMC5614982, “Impact of Gastric H^+/K^+-ATPase rs2733743 on the Intragastric pH-Values of Dexlansoprazole Injection in Chinese Subjects” (Frontiers in Pharmacology, 2017):
Where “and” joins values, the source holds several entries; their conditions need not be identical. Equal entries are not always repeated.

System: intragastric pH
Experiment: 24-h intragastric pH monitoring after single intravenous dexlansoprazole in healthy Chinese subjects
Format: in vivo, human
Experimental: Dexlansoprazole injection (30 mg per vial) used in the PK and PD study was manufactured by Nanjing Yoko Pharma Co., Ltd. (Nanjing, China). Subjects received an intravenous infusion of 20 or 30 mg dexlansoprazole injection in sterile saline solution (100 mL/h, 60 min). The study drug was administrated with an infusing pump (SA213, Lifepum, Beijing, China) and given through an intravenous catheter in the antecubital vein opposite to the one from which blood samples were taken.
An ambulatory pH recorder (Orion II, MMS, USA) with a disposable pH catheter (VersaFlex, MMS, USA) was used to monitor intragastric pH. The electrode was placed in water for at least 10 min and then calibrated using standard buffer solutions (pH 1.07 and 7.01) before intubation. Both calibration and intubation processes were conducted under the guidance of MMS Virtual Instructor Program. The catheter, trans nasally placed 10 cm under the lower esophageal sphincter, was identified by a sharp decrease in pH (Wang et al., [2010], [2011]). Subjects were intubated on baseline and the day of dosing at about 7:30 a.m., and the intragastric pH data were recorded continuously for 24 h from 8:00 a.m. Intragastric pH was sampled every second, and the data were stored in a MMS Database program (MMS, USA). The PD parameters including Median (pH), Mean (pH), TpH≥3 (%), TpH≥4 (%), TpH≥6 (%), TpH≥6, and AUC^pH−t were analyzed by the MMS Database program.
Median (pH) and mean (pH) were well-investigated in most studies, and the percentage time of pH ≥ 4 (or pH ≥ 4 holding time ratio) was the benchmark for predicting clinical efficacy of PPIs in treating acid-related diseases (Metz et al., [2009]). Novel parameter TpH≥6 (time to first gastric pH ≥ 6, min) and AUCτ 1-τ 2pH-t (area under pH-time curve from τ1 to τ2, pH·s) were defined to evaluate the velocity and extent of pharmacodynamics with more accuracy. All parameters were calculated and compared according to time periods of 0–24, 0–4, 4–10, 10–14, and 14–24 h post dosing.
The parameter AUCτ 1-τ 2pH-t was calculated as follows:
Where t represented the time duration measured by seconds, AUCτ 1-τ 210-t was the area between the pH line = 10 and the pH-time curve, which was generated by the MMS software.
Baseline-adjusted PD parameters were calculated as follows: for example, ΔAUC^pH−t = AUC^pH−t − AUC^pH−tbaseline, ΔMean (pH) = Mean (pH) − Mean (pH)^baseline, and ΔMedian (pH) = Median (pH) − Median (pH)^baseline.

Cc1c(OCC(F)(F)F)ccnc1C[S@@+]([O-])c1nc2ccccc2[nH]1 [dexlansoprazole]
time to first gastric pH ≥ 6 (TpH≥6) (20 mg group): 76 (± 29) min and 76 ± 29 min
Mean (pH) (20 mg iv, 0–4 h): 4.3 ± 1.5 pH
Median (pH) (20 mg iv, 0–4 h): 4.6 ± 2.1 pH
TpH≥3(%) (20 mg iv, 0–4 h): 57.5 ± 22.1 %
TpH≥4(%) (20 mg iv, 0–4 h): 46.5 ± 26.3 %
TpH≥6(%) (20 mg iv, 0–4 h): 33.2 ± 29.4 %
ΔMean (pH) (20 mg iv, 0–4 h): 2.1 ± 1.1 pH
ΔMedian (pH) (20 mg iv, 0–4 h): 2.5 ± 1.9 pH
ΔTpH≥3(%) (20 mg iv, 0–4 h): 47.1 ± 20.6%
ΔTpH≥4 (%) (20 mg iv, 0–4 h): 39.0 ± 22.3 %
ΔTpH≥6(%) (20 mg iv, 0–4 h): 27.6 ± 24.2 %
Mean (pH) (20 mg iv, 0–24 h): 4.9 ± 1.2 pH
Median (pH) (20 mg iv, 0–24 h): 4.9 ± 1.5 pH
TpH≥3(%) (20 mg iv, 0–24 h): 68.5 ± 20.9 %
TpH≥4(%) (20 mg iv, 0–24 h): 60.4 ± 22.2 %
TpH≥6(%) (20 mg iv, 0–24 h): 40.1 ± 21.3 %
ΔMean (pH) (20 mg iv, 0–24 h): 2.4 ± 1.0 pH
ΔMedian (pH) (20 mg iv, 0–24 h): 3.1 ± 1.5 pH
ΔTpH≥3(%) (20 mg iv, 0–24 h): 44.5 ± 19.0 %
ΔTpH≥4 (%) (20 mg iv, 0–24 h): 45.0 ± 20.7 %
ΔTpH≥6(%) (20 mg iv, 0–24 h): 33.7 ± 18.8 %
Mean (pH) (20 mg iv, 4–10 h): 6.2 ± 1.4 pH
Median (pH) (20 mg iv, 4–10 h): 6.3 ± 1.6 pH
TpH≥3(%) (20 mg iv, 4–10 h): 89.4 ± 23.1%
TpH≥4(%) (20 mg iv, 4–10 h): 89.0 ± 22.1%
TpH≥6(%) (20 mg iv, 4–10 h): 64.1 ± 31.0 %
ΔMean (pH) (20 mg iv, 4–10 h): 3.3 ± 1.4 pH
ΔMedian (pH) (20 mg iv, 4–10 h): 3.6 ± 1.7 pH
ΔTpH≥3(%) (20 mg iv, 4–10 h): 51.8 ± 29.6%
ΔTpH≥4 (%) (20 mg iv, 4–10 h): 65.8 ± 26.9%
ΔTpH≥6(%) (20 mg iv, 4–10 h): 54.9 ± 32.2 %
Mean (pH) (20 mg iv, 10–14 h): 6.5 ± 1.6 pH
Median (pH) (20 mg iv, 10–14 h): 6.6 ± 1.6 pH
TpH≥3(%) (20 mg iv, 10–14 h): 92.7 ± 18.1%
TpH≥4(%) (20 mg iv, 10–14 h): 88.4 ± 22.7%
TpH≥6(%) (20 mg iv, 10–14 h): 70.9 ± 35.5%
ΔMean (pH) (20 mg iv, 10–14 h): 3.3 ± 1.4 pH
ΔMedian (pH) (20 mg iv, 10–14 h): 3.7 ± 1.5 pH
ΔTpH≥3(%) (20 mg iv, 10–14 h): 43.8 ± 25.3%
ΔTpH≥4 (%) (20 mg iv, 10–14 h): 55.5 ± 26.0%
ΔTpH≥6(%) (20 mg iv, 10–14 h): 63.7 ± 34.3%
Mean (pH) (20 mg iv, 14–24 h): 3.6 ± 1.3 pH
Median (pH) (20 mg iv, 14–24 h): 3.2 ± 1.4 pH
TpH≥3(%) (20 mg iv, 14–24 h): 48.7 ± 30.8 %
TpH≥4(%) (20 mg iv, 14–24 h): 37.6 ± 31.3 %
TpH≥6(%) (20 mg iv, 14–24 h): 16.3 ± 19.3 %
ΔMean (pH) (20 mg iv, 14–24 h): 1.6 ± 1.1 pH
ΔMedian (pH) (20 mg iv, 14–24 h): 1.5 ± 1.3 pH
ΔTpH≥3(%) (20 mg iv, 14–24 h): 38.8 ± 27.8 %
ΔTpH≥4 (%) (20 mg iv, 14–24 h): 31.2 ± 28.2 %
ΔTpH≥6(%) (20 mg iv, 14–24 h): 12.0 ± 14.0 %
time to first gastric pH ≥ 6 (TpH≥6) (30 mg group): 58 (± 25) min and 58 ± 25 min
Mean (pH) (30 mg iv, 0–4 h): 5.5 ± 1.5 pH
Median (pH) (30 mg iv, 0–4 h): 6.1 ± 2.0 pH
TpH≥3(%) (30 mg iv, 0–4 h): 72.3 ± 20.8%
TpH≥4(%) (30 mg iv, 0–4 h): 66.5 ± 23.4%
TpH≥6(%) (30 mg iv, 0–4 h): 54.6 ± 29.2%
ΔMean (pH) (30 mg iv, 0–4 h): 3.3 ± 1.1 pH
ΔMedian (pH) (30 mg iv, 0–4 h): 4.1 ± 1.9 pH
ΔTpH≥3(%) (30 mg iv, 0–4 h): 57.5 ± 22.2%
ΔTpH≥4 (%) (30 mg iv, 0–4 h): 56.6 ± 19.6%
ΔTpH≥6(%) (30 mg iv, 0–4 h): 50.7 ± 26.1%
Mean (pH) (30 mg iv, 0–24 h): 6.1 ± 1.2 pH
Median (pH) (30 mg iv, 0–24 h): 6.4 ± 1.4 pH
TpH≥3(%) (30 mg iv, 0–24 h): 85.1 ± 15.7%
TpH≥4(%) (30 mg iv, 0–24 h): 79.8 ± 19.0%
TpH≥6(%) (30 mg iv, 0–24 h): 64.2 ± 21.0%
ΔMean (pH) (30 mg iv, 0–24 h): 3.4 ± 1.1 pH
ΔMedian (pH) (30 mg iv, 0–24 h): 4.3 ± 1.3 pH
ΔTpH≥3(%) (30 mg iv, 0–24 h): 58.6 ± 18.5%
ΔTpH≥4 (%) (30 mg iv, 0–24 h): 62.8 ± 20.3%
ΔTpH≥6(%) (30 mg iv, 0–24 h): 56.6 ± 18.8%
Mean (pH) (30 mg iv, 4–10 h): 6.9 ± 1.0 pH
Median (pH) (30 mg iv, 4–10 h): 7.1 ± 0.9 pH
TpH≥3(%) (30 mg iv, 4–10 h): 96.8 ± 7.6%
TpH≥4(%) (30 mg iv, 4–10 h): 94.5 ± 11.9%
TpH≥6(%) (30 mg iv, 4–10 h): 83.2 ± 22.3%
ΔMean (pH) (30 mg iv, 4–10 h): 4.2 ± 1.2 pH
ΔMedian (pH) (30 mg iv, 4–10 h): 4.6 ± 1.2 pH
ΔTpH≥3(%) (30 mg iv, 4–10 h): 60.4 ± 21.3%
ΔTpH≥4 (%) (30 mg iv, 4–10 h): 75.7 ± 19.2%
ΔTpH≥6(%) (30 mg iv, 4–10 h): 80.3 ± 22.3%
Mean (pH) (30 mg iv, 10–14 h): 7.2 ± 1.2 pH
Median (pH) (30 mg iv, 10–14 h): 7.3 ± 1.3 pH
TpH≥3(%) (30 mg iv, 10–14 h): 96.8 ± 9.5%
TpH≥4(%) (30 mg iv, 10–14 h): 95.0 ± 12.9%
TpH≥6(%) (30 mg iv, 10–14 h): 84.5 ± 24.3%
ΔMean (pH) (30 mg iv, 10–14 h): 4.2 ± 1.5 pH
ΔMedian (pH) (30 mg iv, 10–14 h): 4.5 ± 1.7 pH
ΔTpH≥3(%) (30 mg iv, 10–14 h): 54.1 ± 28.5%
ΔTpH≥4 (%) (30 mg iv, 10–14 h): 70.6 ± 26.4%
ΔTpH≥6(%) (30 mg iv, 10–14 h): 82.1 ± 23.6%
Mean (pH) (30 mg iv, 14–24 h): 5.5 ± 1.5 pH
Median (pH) (30 mg iv, 14–24 h): 5.3 ± 1.9 pH
TpH≥3(%) (30 mg iv, 14–24 h): 78.9 ± 27.7%
TpH≥4(%) (30 mg iv, 14–24 h): 70.6 ± 31.1%
